Reference: patent US20070015723A1, “Antiviral oligonucleotides having a conserved G4 core sequence” (priority 1992, published 2007)
pIC50: −log10 of the molar value.

Columns and labels:
[1] = test system: phospholipase A2 from Agkistrodon piscivorus piscivorus
[2] = test system: Naja naja naja phospholipase A2

## ISIS 3196: GGG T GGG T ATA G AAG G GCT CC, P = S, SEQ ID NO 47 (GGGTGGGTATAGAAGGGCTCC; all phosphorothioate, sugars by position and methylation of C not given here)
[1]
  pIC50: ~5.52
[2]
  pIC50: < 5.00
